Experimental findings from patent US20250368649A1, “TETRAHYDROPYRIDOPYRIMIDINE PAN-KRAS INHIBITORS” (Mirati Therapeutics, Inc., priority 2022, published 2025) are described below.

For orientation: IC50 means the point on the concentration scale where inhibition reaches its midpoint. For orientation: inhibition means the relative decrease from the control value, in per cent.

One assay has as its system HCT116 cells. As to the kind of experiment: Inhibition of KRas-mediated phosphorylation of ERK (Cisbio HTRF pERK), HCT116 cells. It counts as cell-based. The note with it: Homo sapiens; for IC50: HCT-116, 3 h, 3 hr compound incubation, Cisbio pERK HTRF; for inhibition at 0.1 µM: HCT-116, single point at 100 nM, 3 hrs compound incubation.
For another assay, the system named is MKN1 cells. In words: Inhibition of KRas-mediated phosphorylation of ERK (Cisbio HTRF pERK), MKN1 cells. It counts as cell-based. The note with it: Homo sapiens, MKN-1, 3 hour compound incubation, Cisbio pERK HTRF. The method, boiled down:
(§1)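 On the first day, plate 6,000 cells into each well in RPMI medium with 10% fetal bovine serum.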
Background: Time-resolved FRET reads energy transfer from a long-lived donor to a nearby acceptor.

The target in another assay is KRas G12V (Homo sapiens, UniProt P01116, G12V). In words: biochemical. The note with it: Binding to KRas (IC50 nM) G12V, TR-FRET displacement, KRas G12V.
Another assay deals with A549 cells. As to the kind of experiment: Inhibition of KRas-mediated phosphorylation of ERK (Cisbio HTRF pERK), A549 cells. It counts as cell-based. Conditions: Homo sapiens; for IC50: A549, 3 h, 3 hr compound incubation, Cisbio pERK HTRF; for inhibition at 0.1 µM: single point at 100 nM, 3 hrs compound incubation.
For another assay, the system named is PSN1 cells. In words: Inhibition of KRas-mediated phosphorylation of ERK (Cisbio HTRF pERK), PSN1 cells. It counts as cell-based. The note with it: Homo sapiens, PSN1, 3 h, 3 hour compound incubation, Cisbio pERK HTRF. A digest of the protocol: as §1
Another assay deals with ASPC1 cells. As to the kind of experiment: Inhibition of KRas-mediated phosphorylation of ERK (Cisbio HTRF pERK), ASPC1 cells. It counts as cell-based. Conditions: Homo sapiens, AsPC-1 cells; for IC50: ASPC1, 3 h, 3 hr compound incubation, Cisbio pERK HTRF; for inhibition at 0.1 µM: ASPC1, single point at 100 nM, 3 hrs compound incubation.
The next assay deals with KRas G12D (Homo sapiens, UniProt P01116, G12D). In words: biochemical. Conditions: Binding to KRas (IC50 nM) G12D, TR-FRET displacement, KRas G12D.
The next assay concerns H358 cells. As to the kind of experiment: Inhibition of KRas-mediated phosphorylation of ERK (Cisbio HTRF pERK), H358 cells. The note with it: Homo sapiens; for IC50: NCI-H358, 3 h, 3 hr compound incubation, Cisbio pERK HTRF; for inhibition at 0.1 µM: NCI-H358, single point at 100 nM, 3 hrs compound incubation. It counts as cell-based.
The next assay relates to H460 cells. As to the kind of experiment: Inhibition of KRas-mediated phosphorylation of ERK (Cisbio HTRF pERK), H460 cells. It counts as cell-based. The note with it: Homo sapiens; for IC50: NCI-H460, 3 h, 3 hr compound incubation, Cisbio pERK HTRF; for inhibition at 0.1 µM: NCI-H460, single point at 100 nM, 3 hrs compound incubation.
The subject of the next assay is H727 cells. In words: Inhibition of KRas-mediated phosphorylation of ERK (Cisbio HTRF pERK), H727 cells. Conditions: Homo sapiens; for IC50: NCI-H727, 3 h, 3 hr compound incubation, Cisbio pERK HTRF; for inhibition at 0.1 µM: NCI-H727, single point at 100 nM, 3 hrs compound incubation. It counts as cell-based.
The next assay has as its target KRas G12R (Homo sapiens, UniProt P01116, G12R). As to the kind of experiment: biochemical. The note with it: Binding to KRas (IC50 nM) G12R, TR-FRET displacement, KRas G12R.

The structures appear in SMILES notation.

Sequence of KRas G12D (P01116 1-169 isoform P01116-2 G12D): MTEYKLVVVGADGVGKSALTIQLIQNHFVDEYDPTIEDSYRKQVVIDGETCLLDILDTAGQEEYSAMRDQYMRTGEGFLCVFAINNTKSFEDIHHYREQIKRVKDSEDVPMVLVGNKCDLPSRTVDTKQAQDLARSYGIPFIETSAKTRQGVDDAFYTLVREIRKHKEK
Sequence of KRas G12R (P01116 1-169 isoform P01116-2 G12R): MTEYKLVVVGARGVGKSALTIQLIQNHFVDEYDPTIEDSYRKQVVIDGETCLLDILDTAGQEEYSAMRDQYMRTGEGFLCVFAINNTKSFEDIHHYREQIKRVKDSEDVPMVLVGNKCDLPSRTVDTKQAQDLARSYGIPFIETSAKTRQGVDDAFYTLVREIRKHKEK
Sequence of KRas G12V (P01116 1-169 isoform P01116-2 G12V): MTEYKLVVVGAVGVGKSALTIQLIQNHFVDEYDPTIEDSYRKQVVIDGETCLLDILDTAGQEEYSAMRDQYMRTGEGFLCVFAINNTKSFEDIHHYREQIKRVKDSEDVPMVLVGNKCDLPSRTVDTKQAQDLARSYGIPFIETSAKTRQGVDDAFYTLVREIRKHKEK

For `CCc1c(F)ccc2cc(O)cc(N3CCc4c(nc(OC[C@@]56CCCN5C[C@H](F)C6)nc4N4CCCCn5nc(C(=O)N(C)C)c(Br)c5C4)C3)c12` [Example 507, 3-bromo-5-(7-(8-ethyl-7-fluoro-3-hydroxynaphthalen-1-yl)-2-(((2R,7aS)-2-fluorotetrahydro-1H-pyrrolizin-7a(5H)-yl)methoxy)-5,6,7,8-tetrahydropyrido[3,4-d]pyrimidin-4-yl)-N,N-dimethyl-4,5,6,7,8,9-hexahydropyrazolo[1,5-a][1,4] diazocine-2-carboxamide], the IC50 is 39 nM in the assay with HCT116 cells; 5.5 nM in the assay with MKN1 cells; less than 2 nM at KRas G12V; 6 nM with A549 cells; 1320 nM in the assay with PSN1 cells; 10 nM in the assay on ASPC1 cells. The IC50 was less than 2 nM on KRas G12D; 1 nM in the assay with H358 cells; 13 nM in the assay on H460 cells; 4 nM in the assay on H727 cells; less than 2 nM at KRas G12R. The inhibition at 0.1 µM with HCT116 cells came to 51%; in the assay with A549 cells, 76%; with ASPC1 cells, 96%; in the assay with H358 cells it was 101%; with H460 cells, 84%; with H727 cells, 79%.
For `Cc1c(F)ccc2cc(O)cc(N3CCc4c(nc(OC[C@@]56CCCN5C[C@H](F)C6)nc4N4CCCC5(CNS(=O)(=O)N5)C4)C3)c12` (stereo partly drawn) [Example 512, 7-(7-(7-fluoro-3-hydroxy-8-methylnaphthalen-1-yl)-2-(((2R,7aS)-2-fluorohexahydro-1H-pyrrolizin-7a-yl)methoxy)-5,6,7,8-tetrahydropyrido[3,4-d]pyrimidin-4-yl)-2-thia-1,3,7-triazaspiro[4.5]decane 2,2-dioxide], the inhibition at 0.1 µM came to 56% with HCT116 cells; 71% in the assay on A549 cells; 74% in the assay with ASPC1 cells; 92% in the assay with H358 cells; 79% in the assay on H460 cells; 42% in the assay with H727 cells. Further, the IC50 in the assay with MKN1 cells was 12.6 nM; on KRas G12V, less than 2 nM; in the assay on PSN1 cells, 276 nM; in the assay on ASPC1 cells it was 30 nM; on KRas G12D, less than 2 nM; in the assay with H727 cells, 85 nM. This molecule gave an IC50 on KRas G12R of 2 nM.
`CCc1c(F)ccc2cc(O)cc(N3CCc4c(nc(OC[C@@]56CCCN5C[C@H](F)C6)nc4N4C[C@@H]5C[C@H](C4)[C@H](O)C5)C3)c12` [Example 585B, (1R,5R,6R)-3-(7-(8-ethyl-7-fluoro-3-hydroxynaphthalen-1-yl)-2-(((2R,7aS)-2-fluorotetrahydro-1H-pyrrolizin-7a(5H)-yl)methoxy)-5,6,7,8-tetrahydropyrido[3,4-d]pyrimidin-4-yl)-3-azabicyclo[3.2.1]octan-6-ol]: the IC50 in the assay with HCT116 cells is 439 nM; in the assay with MKN1 cells it was 19.7 nM; on KRas G12V, less than 2 nM; in the assay on A549 cells, 125 nM; with PSN1 cells, 6500 nM; in the assay with ASPC1 cells, 273 nM. For the same molecule, the IC50 is 3 nM on KRas G12D; 111 nM in the assay on H358 cells; 163 nM in the assay with H460 cells; 191 nM in the assay on H727 cells; less than 2 nM at KRas G12R.
For `CCc1c(F)ccc2cc(O)cc(N3CCc4c(nc(OC[C@]56CCCN5[C@H](COC(=O)N(C)C)CC6)nc4N4CCCn5nc(C(=O)N(C)C)cc5C4)C3)c12` [Example 586, ((3S,7aR)-7a-(((4-(2-(dimethylcarbamoyl)-7,8-dihydro-4H-pyrazolo[1,5-a][1,4]diazepin-5(6H)-yl)-7-(8-ethyl-7-fluoro-3-hydroxynaphthalen-1-yl)-5,6,7,8-tetrahydropyrido[3,4-d]pyrimidin-2-yl)oxy)methyl)hexahydro-1H-pyrrolizin-3-yl)methyl dimethylcarbamate], the IC50 in the assay with HCT116 cells was 336 nM; in the assay with MKN1 cells, 38 nM; at KRas G12V, less than 2 nM; in the assay on A549 cells it was 48 nM; in the assay with PSN1 cells, 8160 nM; with ASPC1 cells it was 19 nM. Besides, the IC50 was less than 2 nM on KRas G12D; 23 nM in the assay with H358 cells; 137 nM in the assay with H460 cells; 29 nM in the assay on H727 cells; less than 2 nM at KRas G12R.
Take `O=C1NC(=O)[C@]2(CCCN(c3nc(OC[C@@]45CCCN4C[C@H](F)C5)nc4c3CCN(c3cc(O)cc5ccc(F)c(Cl)c35)C4)C2)N1` [Example 587, (R)-7-(7-(8-chloro-7-fluoro-3-hydroxynaphthalen-1-yl)-2-(((2R,7aS)-2-fluorotetrahydro-1H-pyrrolizin-7a(5H)-yl)methoxy)-5,6,7,8-tetrahydropyrido[3,4-d]pyrimidin-4-yl)-1,3,7-triazaspiro[4.5]decane-2,4-dione]: the IC50 with HCT116 cells was 82 nM; in the assay with MKN1 cells, 3.3 nM; on KRas G12V, less than 2 nM; in the assay with A549 cells, 33 nM; with PSN1 cells it was 170 nM; with ASPC1 cells, 131 nM. In addition, the IC50 on KRas G12D was less than 2 nM; in the assay on H358 cells, 11 nM; with H460 cells, 25 nM; with H727 cells, 164 nM; on KRas G12R, less than 2 nM.
Consider `CCc1c(F)ccc2cc(O)cc(N3CCc4c(nc(OCC5(CN(C)C)CC5)nc4N4CCCC5(CCO5)C4)C3)c12` (stereo not drawn) [Example 588, 4-(2-((1-((dimethylamino)methyl)cyclopropyl)methoxy)-4-(1-oxa-6-azaspiro[3.5]nonan-6-yl)-5,8-dihydropyrido[3,4-d]pyrimidin-7(6H)-yl)-5-ethyl-6-fluoronaphthalen-2-ol], for which the concentration for half-maximal inhibition (IC50) in the assay on HCT116 cells was 544 nM; with MKN1 cells it was 250 nM; at KRas G12V, less than 2 nM; in the assay on A549 cells, 455 nM; in the assay on PSN1 cells, 6390 nM; with ASPC1 cells, 460 nM. In addition, the IC50 was less than 2 nM at KRas G12D; 211 nM in the assay with H358 cells; 276 nM in the assay on H460 cells; 779 nM in the assay with H727 cells; less than 2 nM at KRas G12R.
With `CCc1c(F)ccc2cc(O)cc(N3CCc4c(nc(OC[C@@]56CCCN5C[C@H](F)C6)nc4N4CCCCn5nc(C(=O)N(C)C)c(Cl)c5C4)C3)c12` [Example 589, 3-chloro-5-(7-(8-ethyl-7-fluoro-3-hydroxynaphthalen-1-yl)-2-(((2R,7aS)-2-fluorotetrahydro-1H-pyrrolizin-7a(5H)-yl)methoxy)-5,6,7,8-tetrahydropyrido[3,4-d]pyrimidin-4-yl)-N,N-dimethyl-4,5,6,7,8,9-hexahydropyrazolo[1,5-a][1,4] diazocine-2-carboxamide], the concentration for half-maximal inhibition (IC50) in the assay on HCT116 cells is 30 nM; in the assay on MKN1 cells it was 2.5 nM; at KRas G12V, less than 2 nM; in the assay with A549 cells, 6 nM; in the assay with PSN1 cells, 1080 nM; in the assay on ASPC1 cells, 6 nM. Besides, the IC50 at KRas G12D is less than 2 nM; in the assay on H358 cells, 2 nM; in the assay on H460 cells, 16 nM; in the assay with H727 cells, 3 nM; at KRas G12R it was less than 2 nM.
As to `CCc1c(F)ccc2cc(O)cc(N3CCc4c(nc(OC[C@@]56CCCN5C[C@H](F)C6)nc4N4CCCCn5nc(C(=O)N(C)C6CC6)cc5C4)C3)c12` [Example 592, N-cyclopropyl-5-(7-(8-ethyl-7-fluoro-3-hydroxynaphthalen-1-yl)-2-(((2R,7aS)-2-fluorotetrahydro-1H-pyrrolizin-7a(5H)-yl)methoxy)-5,6,7,8-tetrahydropyrido[3,4-d]pyrimidin-4-yl)-N-methyl-4,5,6,7,8,9-hexahydropyrazolo[1,5-a][1,4] diazocine-2-carboxamide], the IC50 is 148 nM with HCT116 cells; 11 nM with MKN1 cells; less than 2 nM at KRas G12V; 29 nM in the assay on A549 cells; 3450 nM in the assay with PSN1 cells; 14 nM in the assay on ASPC1 cells. Also, the IC50 was less than 2 nM on KRas G12D; 4 nM in the assay on H358 cells; 50 nM in the assay on H460 cells; 8 nM with H727 cells; less than 2 nM on KRas G12R.
